Source: patent US8546440B2, “Substituted bicyclic imidazole derivatives as gamma secretase modulators” (Janssen Pharmaceuticals, Inc., priority 2008, dated 2013)

Tests used:
Assay type in all cases: cell-based
Aβtotal [1] = assay: Screening for γ-secretase-modulating activity, Method 2: Aβtotal Alphalisa in supernatant of SKNBE2 cells carrying APP 695 wild type (Table 12c); conditions: Method 2, Table 12c, incubated overnight
Description: (§1) Screening was carried out using SKNBE2 cells carrying the APP 695—wild type, grown in Dulbecco's Modified Eagle's Medium/Nutrient mixture F-12 (DMEM/NUT-mix F-12) (HAM) provided by Invitrogen (cat no. 10371-029) containing 5% Serum/Fe supplemented with 1% non-essential amino acids, 1-glutamine 2 mM, Hepes 15 mM, penicillin 50 U/ml (units/ml) en streptomycin 50 μg/ml. Cells were grown to near confluency.
(§2) The screening was performed using a modification of the assay as described in Citron et al (1997) Nature Medicine 3: 67. Briefly, cells were plated in a 384-well plate at 10^4 cells/well in Ultraculture (Lonza, BE12-725F) supplemented with 1% glutamine (Invitrogen, 25030-024), 1% non-essential amino acid (NEAA), penicillin 50 U/ml en streptomycin 50 μg/ml in the presence of test compound at different test concentrations. The cell/compound mixture was incubated overnight at 37° C., 5% CO2, The next day the media were assayed by two sandwich immuno-assays, for Aβ42 and Aβtotal.
(§3) Aβtotal and Aβ42 concentrations were quantified in the cell supernatant using the Aphalisa technology (Perkin Elmer). Alphalisa is a sandwich assay using biotinylated antibody attached to streptavidin coated donorbeads and antibody conjugated to acceptor beads. In the presence of antigen, the beads come into close proximity. The excitation of the donor beads provokes the release of singlet oxygen molecules that trigger a cascade of energy transfer in the acceptor beads, resulting in light emission. To quantify the amount of Aβ42 in the cell supernatant, monoclonal antibody specific to the C-terminus of Aβ42 (JRF/cAβ42/26) was coupled to the receptor beads and biotinylated antibody specific to the N-terminus of Aβ (JRF/AβN/25) was used to react with the donor beads. To quantify the amount of Aβtotal in the cell supernatant, monoclonal antibody specific to the N-terminus of Aβ (JRF/AβN/25) was coupled to the receptor beads and biotinylated antibody specific to the mid region of Aβ (biotinylated 4G8) was used to react with the donor beads.
(§4) To obtain the values reported in Table 12c, the data are calculated as percentage of the maximum amount of amyloid Beta 42 measured in the absence of the test compound. The sigmoidal dose response curves were analyzed using non-linear regression analysis with percentage of the control plotted against the log concentration of the compound. A 4-parameter equation was used to determine the IC50.

Aβ42 [2] = assay: Screening for γ-secretase-modulating activity, Method 2: Aβ42 Alphalisa in supernatant of SKNBE2 cells carrying APP 695 wild type (Table 12c); conditions: Method 2, Table 12c, incubated overnight
Description: as §1, §2, §3, §4

Aβtotal [3] = assay: Screening for γ-secretase-modulating activity, Method 1: Aβtotal sandwich ELISA in supernatant of SKNBE2 cells carrying APP 695 wild type (Tables 12a, 12b)
Description: (§5) Screening was carried out using SKNBE2 cells carrying the APP 695—wild type, grown in Dulbecco's Modified Eagle's Medium/Nutrient mixture F-12 (DMEM/NUT-mix F-12) (HAM) provided by Gibco (cat no. 31330-38) containing 5% Serum/Fe supplemented with 1% non-essential amino acids. Cells were grown to near confluency.
(§6) The screening was performed using the assay as described in Citron et al (1997) Nature Medicine 3: 67. Briefly, cells were plated in a 96-well plate at about 10^5 cells/ml one day prior to addition of compounds. Compounds were added to the cells in Ultraculture (Lonza, BE12-725F) supplemented with 1% glutamine (Invitrogen, 25030-024) for 18 hours. The media were assayed by two sandwich ELISAs, for Aβ42 and Aβtotal. Toxicity of the compounds was assayed by WST-1 cell proliferation reagent (Roche, 1 644 807) according to the manufacturer's protocol.
To quantify the amount of Aβtotal in the cell supernatant, samples and standards were added to a 6E10-coated plate. The plate was allowed to incubate overnight at 4° C. in order to allow formation of the antibody-amyloid complex. Following this incubation and subsequent wash steps a selective anti-Aβ-antibody conjugate (biotinylated 4G8) was added and incubated for a minimum of 1 hour in order to allow formation of the antibody-Amyloid-antibody-complex. After incubation and appropriate wash steps, a Streptavidine-Peroxidase-Conjugate was added, followed 30 minutes later by an addition of Quanta Blu fluorogenic peroxidase substrate according to the manufacturer's instructions (Pierce Corp., Rockford, Ill.).
(§7) To obtain the values reported in Table 12a, the sigmoidal dose response curves were analysed by computerised curve-fitting, with percent of inhibition plotted against compound concentration. A 4-parameter equation (model 205) in XLfit was used to determine the IC50. The top and the bottom of the curve were fixed to 100 and 0, respectively, and the hill slope was fixed to 1. The IC50 represents the concentration of a compound that is required for inhibiting a biological effect by 50% (Here, it is the concentration where Aβ peptide level is reduced by 50%).
(§8) To obtain the values reported in Table 12b, the data are calculated as percentage of the maximum amount of amyloid Beta 42 measured in the absence of the test compound. The sigmoidal dose response curves were analyzed using non-linear regression analysis with percentage of the control plotted against the log concentration of the compound. A 4-parameter equation was used to determine the IC50. The values reported in Table 12b are averaged IC50 values.

Aβ42 [4] = assay: Screening for γ-secretase-modulating activity, Method 1: Aβ42 sandwich ELISA in supernatant of SKNBE2 cells carrying APP 695 wild type (Tables 12a, 12b)
Description: as §5, §6
To quantify the amount of Aβ42 in the cell supernatant, commercially available Enzyme-Linked-Immunosorbent-Assay (ELISA) kits were used (Innotest® β-Amyloid(1-42), Innogenetics N.V., Ghent, Belgium). The Aβ42 ELISA was performed essentially according to the manufacturer's protocol. Briefly, the standards (dilutions of synthetic Aβ1-42) were prepared in polypropylene Eppendorf with final concentrations of 8000 down to 3.9 pg/ml (1/2 dilution step). Samples, standards and blanks (100 μl) were added to the anti-Aβ42-coated plate supplied with the kit (the capture antibody selectively recognizes the C-terminal end of the antigen). The plate was allowed to incubate 3 h at 25° C. in order to allow formation of the antibody-amyloid complex. Following this incubation and subsequent wash steps a selective anti-Aβ-antibody conjugate (biotinylated 3D6) was added and incubated for a minimum of 1 hour in order to allow formation of the antibody-Amyloid-antibody-complex. After incubation and appropriate wash steps, a Streptavidine-Peroxidase-Conjugate was added, followed 30 minutes later by an addition of 3,3′,5,5′-tetramethylbenzidine (TMB)/peroxide mixture, resulting in the conversion of the substrate into a coloured product. This reaction was stopped by the addition of sulfuric acid (0.9 N) and the colour intensity was measured by means of photometry with an ELISA-reader with a 450 nm filter.
as §7, §8

[5] = Homo sapiens, Method 1, Table 12a, SKNBE2 cells carrying APP 695 wild type, compounds 18 hours, ELISA, curve top and bottom fixed to 100 and 0, hill slope 1

## Cc1cn(-c2ccc(Nc3cccn4cc(CC5CCOCC5)nc34)cc2F)cn1 [Compound 115]
Aβtotal [1]; Homo sapiens
  IC50: 8320 nM
Aβ42 [2]; Homo sapiens
  IC50: 257 nM

## COCCOCCOCC(=O)NCc1ccc(C)c(-c2cn3cccc(Nc4ccc(-n5cnc(C)c5)c(OC)c4)c3n2)c1 [Compound 114]
Aβtotal [1]; Homo sapiens
  IC50: 3630 nM
Aβ42 [2]; Homo sapiens
  IC50: 151 nM

## COc1cc(Nc2cccn3c(CN(C)C)c(-c4ccccc4)nc23)ccc1-n1cnc(C)n1 [Compound 128]
Aβtotal [1]
  IC50: > 10000 nM
Aβ42 [2]
  IC50: 62 nM

## COc1nc(Nc2cccn3cc(CC(F)(F)F)nc23)ccc1-n1cnc(C)c1 [Compound 179]
Aβtotal [1]; Homo sapiens
  IC50: > 10000 nM
Aβ42 [2]; Homo sapiens
  IC50: 78 nM

## COc1cc(Nc2cccn3cc(C(=O)OC(C)(C)C)nc23)ccc1-n1cnc(C)c1 [Compound 106]
Aβtotal [1]
  IC50: 4570 nM
Aβ42 [2]
  IC50: 34 nM

## CCC(=O)c1cn2cccc(Nc3ccc(-n4cnc(C)c4)c(OC)c3)c2n1 [Compound 117]
Aβtotal [1]; Homo sapiens
  IC50: > 10000 nM
Aβ42 [2]; Homo sapiens
  IC50: 331 nM

## COCc1c(-c2ccccc2)nc2c(Nc3ccc(-n4cnc(C)c4)c(F)c3)cccn12 [Compound 104]
Aβtotal [1]
  IC50: 7240 nM
Aβ42 [2]
  IC50: 29 nM

## COc1nc(Nc2cccn3cc(CC(F)(F)F)nc23)ccc1-n1cnc(C)n1 [Compound 180]
Aβtotal [1]
  IC50: 6250 nM
Aβ42 [2]
  IC50: 562 nM

## COc1cc(Nc2cccn3cc(C(O)C(F)(F)F)nc23)ccc1-n1cnc(C)c1 (stereo not shown) [Compound 110]
Aβtotal [1]
  IC50: > 10000 nM
Aβ42 [2]
  IC50: 129 nM

## COc1cc(Nc2cc(C(F)(F)F)nn3cc(C4CCOCC4)nc23)ccc1-n1cnc(C)c1 [Compound 158]
Aβtotal [1]
  IC50: 8910 nM
Aβ42 [2]
  IC50: 71 nM

## COc1cc(Nc2nccn3cc(-c4ccc(F)cc4)nc23)ccc1-n1cnc(C)n1 [Compound 178]
Aβtotal [1]
  IC50: > 10000 nM
Aβ42 [2]
  IC50: 380 nM

## CCCCc1cn2cccc(Nc3ccc(-n4cnc(C)c4)c(OC)c3)c2n1 [Compound 69]
Aβtotal [1]
  IC50: > 10000 nM
Aβ42 [2]
  IC50: 46 nM

## COc1cc(Nc2cc(C3CCOCC3)nn3cc(C)nc23)ccc1-n1cnc(C)c1 [Compound 170]
Aβtotal [1]
  IC50: > 10000 nM
Aβ42 [2]
  IC50: 447 nM

## COc1nc(Nc2cccn3c(C)c(-c4ccccc4Cl)nc23)ccc1-n1cnc(C)c1 [Compound 139]
Aβtotal [1]
  IC50: 4270 nM
Aβ42 [2]
  IC50: 5 nM

## Cc1cn(-c2ccc(Nc3ccnn4cc(-c5cc(F)ccc5C)nc34)cc2F)cn1 [Compound 166]
Aβtotal [1]
  IC50: > 10000 nM
Aβ42 [2]
  IC50: 251 nM

## COc1nc(Nc2cccn3c(OC)c(-c4ccc(F)cc4)nc23)ccc1-n1cnc(C)c1 [Compound 141]
Aβtotal [1]
  IC50: > 10000 nM
Aβ42 [2]
  IC50: 13 nM

## COc1cc(Nc2cc(Cl)nn3cc(-c4cc(F)ccc4C)nc23)ccc1-n1cnc(C)n1 [Compound 162]
Aβtotal [1]
  IC50: > 10000 nM
Aβ42 [2]
  IC50: 138 nM

## COc1nc(Nc2cc(F)cn3cc(CC(C)C)nc23)ccc1-n1cnc(C)c1 [Compound 142]
Aβtotal [1]
  IC50: 6610 nM
Aβ42 [2]
  IC50: 31 nM

## Cc1cn(-c2ccc(Nc3cc(Cl)cn4cc(C5CCOCC5)nc34)cc2F)cn1 [Compound 150]
Aβtotal [1]
  IC50: > 10000 nM
Aβ42 [2]
  IC50: 200 nM

## COc1cc(Nc2cccn3cc(C(C)(C)O)nc23)ccc1-n1cnc(C)c1 [Compound 121]
Aβtotal [1]
  IC50: > 10000 nM
Aβ42 [2]
  IC50: 1320 nM

## COc1c(-c2ccc(F)cc2)nc2c(Nc3ccc(-n4cnc(C)c4)c(F)c3)cccn12 [Compound 112]
Aβtotal [1]
  IC50: > 10000 nM
Aβ42 [2]
  IC50: 107 nM

## COc1nc(Nc2cccn3cc(C4CCOCC4)nc23)ccc1-n1cnc(C)c1 [Compound 143]
Aβtotal [1]
  IC50: 3390 nM
Aβ42 [2]
  IC50: 60 nM

## COc1cc(Nc2cccn3cc(C(=O)N(C)C)nc23)ccc1-n1cnc(C)c1 [Compound 123]
Aβtotal [1]
  IC50: > 10000 nM
Aβ42 [2]
  IC50: 5370 nM

## COc1ccccc1-c1cc(Nc2ccc(-n3cnc(C)c3)c(OC)c2)c2nc(C)cn2n1 [Compound 161]
Aβtotal [1]
  IC50: > 10000 nM
Aβ42 [2]
  IC50: 132 nM

## Cc1cn(-c2ccc(Nc3cc(Cl)nn4cc(-c5cc(F)ccc5C)nc34)cc2F)cn1 [Compound 169]
Aβtotal [1]
  IC50: 7940 nM
Aβ42 [2]
  IC50: 417 nM

## C=C(C)c1cc(Nc2ccc(-n3cnc(C)c3)c(OC)n2)c2nc(-c3ccccc3Cl)cn2n1 [Compound 171]
Aβtotal [1]; Homo sapiens
  IC50: 8320 nM
Aβ42 [2]; Homo sapiens
  IC50: 537 nM

## COc1cc(Nc2cccn3cc(-c4cc(CN)ccc4C)nc23)ccc1-n1cnc(C)c1 [Compound 107]
Aβtotal [1]; Homo sapiens
  IC50: 2040 nM
Aβ42 [2]; Homo sapiens
  IC50: 48 nM

## Cc1cn(-c2ccc(Nc3cc(F)cn4cc(-c5ccc(F)cc5C)nc34)cc2F)cn1 [Compound 148]
Aβtotal [1]
  IC50: > 10000 nM
Aβ42 [2]
  IC50: 43 nM

## COc1cc(Nc2cccn3c(CN(C)C)c(-c4ccccc4Cl)nc23)ccc1-n1cnc(C)n1 [Compound 126]
Aβtotal [1]
  IC50: > 10000 nM
Aβ42 [2]
  IC50: 52 nM

## COc1cc(Nc2cc(C(F)(F)F)cn3cc(C(=O)O)nc23)ccc1-n1cnc(C)c1 [Compound 156]
Aβtotal [3]; Table 12b, Method 1, SKNBE2 cells carrying APP 695 wild type, cell supernatant ELISA, averaged IC50 values
  IC50: > 3020 nM
Aβ42 [4]; Table 12b, Method 1, SKNBE2 cells carrying APP 695 wild type, cell supernatant ELISA, averaged IC50 values, percentage of control vs log concentration
  IC50: > 3020 nM

## COc1cccc(-c2nc3c(Nc4ccc(-n5ccnc5C)cc4)cccn3c2C)c1 [Compound 65]
Aβtotal [3]; [5]
  IC50: 27200 nM
Aβtotal [3]; Homo sapiens, Table 12b, Method 1, SKNBE2 cells carrying APP 695 wild type, cell supernatant ELISA, averaged IC50 values
  IC50: 17800 nM
Aβ42 [4]; [5]
  IC50: 782 nM
Aβ42 [4]; Homo sapiens, Table 12b, Method 1, SKNBE2 cells carrying APP 695 wild type, cell supernatant ELISA, averaged IC50 values, percentage of control vs log concentration
  IC50: 661 nM
